From patent US20230313318A1, “MICR[…] METHOD OF USE THEREOF” (priority 2022, published 2023)

Tested on: D. immitis GA III (susceptible isolate)
Design: species or system Dirofilaria immitis
Settings: in vivo

Milbemycin oxime [MBO]
Number of GA III Worms: 0 | Percentage of GA III Worms (po): 0%
